According to ChEMBL document CHEMBL1201862, “PubChem BioAssay data set” (2004):
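Cells were grown in 96-well plates and exposed to each compound for 48 hours at five concentrations; endpoints were interpolated linearly between bracketing concentrations, or set to the highest concentration if not reached. GI50 is the concentration that inhibits growth by half.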 The source made the active and inactive calls. Cut-off read from the data, not from the text of the source: active = GI50 up to about 1.1 µM and inactive = higher.

Tests used:
Test in all cases: NCI-60 cell line screen, 48 h
[1] = test system: A549
[2] = test system: SF-268
[3] = test system: OVCAR-3
[4] = test system: NCI-H522
[5] = test system: HOP-18
[6] = test system: KM12
[7] = test system: UO-31
[8] = test system: 786-0
[9] = test system: NCI-H460
[10] = test system: SNB-78
[11] = test system: RPMI-8226
[12] = test system: CAKI-1
[13] = test system: NCI-H226
[14] = test system: RXF 393
[15] = test system: DMS-114
[16] = test system: A498
[17] = test system: MOLT-4
[18] = test system: M14
[19] = test system: UACC-62
[20] = test system: DLD-1
[21] = test system: OVCAR-4
[22] = test system: OVCAR-8
[23] = test system: HCC 2998
[24] = test system: HCT-116
[25] = test system: UACC-257
[26] = test system: SK-MEL-2
[27] = test system: OVCAR-5
[28] = test system: IGROV-1
[29] = test system: SN12C
[30] = test system: SK-OV-3
[31] = test system: EKVX
[32] = test system: HOP-62
[33] = test system: HL-60
[34] = test system: LXFL 529
[35] = test system: SNB-19
[36] = test system: SW-620
[37] = test system: SF-295
[38] = test system: KM-20L2
[39] = test system: SK-MEL-5
[40] = test system: COLO 205
[41] = test system: U-251
[42] = test system: TK-10
[43] = test system: SR
[44] = test system: SNB-75
[45] = test system: SF-539
[46] = test system: HCT-15
[47] = test system: Malme-3M
[48] = test system: HT-29
[49] = test system: ACHN
[50] = test system: DMS-273
[51] = test system: K562
[52] = test system: NCI-H23
[53] = test system: M19-MEL
[54] = test system: SK-MEL-28
[55] = test system: LOX IMVI
[56] = test system: CCRF-CEM
[57] = test system: HOP-92

C[n+]1c2ccccc2c(NCC(=O)O)c2ccccc21
GI50 [1]: > 100 µM (inactive) | GI50 [2]: > 100 µM (inactive) | GI50 [3]: > 100 µM (inactive) | GI50 [4]: > 100 µM (inactive) | GI50 [5]: > 100 µM (inactive) | GI50 [6]: > 100 µM (inactive) | GI50 [7]: > 100 µM (inactive) | GI50 [8]: > 100 µM (inactive) | GI50 [9]: > 100 µM (inactive) | GI50 [10]: > 100 µM (inactive) | GI50 [11]: > 100 µM (inactive) | GI50 [12]: > 100 µM (inactive) | GI50 [13]: > 100 µM (inactive) | GI50 [14]: > 100 µM (inactive) | GI50 [15]: > 100 µM (inactive) | GI50 [16]: > 100 µM (inactive) | GI50 [17]: > 100 µM (inactive) | GI50 [18]: > 100 µM (inactive) | GI50 [19]: > 100 µM (inactive) | GI50 [20]: > 100 µM (inactive) | GI50 [21]: > 100 µM (inactive) | GI50 [22]: > 100 µM (inactive) | GI50 [23]: > 100 µM (inactive) | GI50 [24]: 86.7 µM (inactive) | GI50 [25]: > 100 µM (inactive) | GI50 [26]: > 100 µM (inactive) | GI50 [27]: > 100 µM (inactive) | GI50 [28]: > 100 µM (inactive) | GI50 [29]: > 100 µM (inactive) | GI50 [30]: > 100 µM (inactive) | GI50 [31]: 87.5 µM (inactive) | GI50 [32]: > 100 µM (inactive) | GI50 [33]: > 100 µM (inactive) | GI50 [34]: > 100 µM (inactive) | GI50 [35]: > 100 µM (inactive) | GI50 [36]: > 100 µM (inactive) | GI50 [37]: > 100 µM (inactive) | GI50 [38]: > 100 µM (inactive) | GI50 [39]: > 100 µM (inactive) | GI50 [40]: > 100 µM (inactive) | GI50 [41]: > 100 µM (inactive) | GI50 [42]: > 100 µM (inactive) | GI50 [43]: > 100 µM (inactive) | GI50 [44]: > 100 µM (inactive) | GI50 [45]: > 100 µM (inactive) | GI50 [46]: > 100 µM | GI50 [47]: > 100 µM (inactive) | GI50 [48]: > 100 µM (inactive) | GI50 [49]: > 100 µM (inactive) | GI50 [50]: > 100 µM (inactive) | GI50 [51]: > 100 µM (inactive) | GI50 [52]: > 100 µM (inactive) | GI50 [53]: > 100 µM (inactive)

CN(C)CC/C(=N\Nc1ccc(Cl)c(Cl)c1)c1ccccc1
GI50 [1]: 1.96 µM (inactive) | GI50 [2]: 1.79 µM (inactive) | GI50 [3]: 2.8 µM (inactive) | GI50 [4]: 2.16 µM (inactive) | GI50 [54]: 2.52 µM (inactive) | GI50 [5]: 1.52 µM (inactive) | GI50 [6]: 2.05 µM (inactive) | GI50 [7]: 1.45 µM (inactive) | GI50 [8]: 1.71 µM (inactive) | GI50 [9]: 1.85 µM (inactive) | GI50 [10]: 2.4 µM (inactive) | GI50 [11]: 2.31 µM (inactive) | GI50 [14]: 2.55 µM (inactive) | GI50 [55]: 1.69 µM (inactive) | GI50 [15]: 1.83 µM (inactive) | GI50 [16]: 2.81 µM (inactive) | GI50 [17]: 2.17 µM (inactive) | GI50 [56]: 2.11 µM (inactive) | GI50 [19]: 1.95 µM (inactive) | GI50 [20]: 3.39 µM (inactive) | GI50 [21]: 2.58 µM (inactive) | GI50 [22]: 1.87 µM (inactive) | GI50 [24]: 1.73 µM (inactive) | GI50 [25]: 3 µM (inactive) | GI50 [27]: 2.56 µM (inactive) | GI50 [28]: 2.18 µM (inactive) | GI50 [29]: 2.14 µM (inactive) | GI50 [30]: 3.72 µM (inactive) | GI50 [31]: 1.82 µM (inactive) | GI50 [32]: 2.4 µM (inactive) | GI50 [33]: 2.29 µM (inactive) | GI50 [34]: 1.52 µM (inactive) | GI50 [35]: 3.49 µM (inactive) | GI50 [36]: 1.72 µM (inactive) | GI50 [37]: 1.9 µM (inactive) | GI50 [38]: 1.74 µM (inactive) | GI50 [39]: 1.84 µM (inactive) | GI50 [40]: 1.77 µM (inactive) | GI50 [41]: 1.78 µM (inactive) | GI50 [42]: 1.98 µM (inactive) | GI50 [43]: 2.13 µM (inactive) | GI50 [44]: 2.4 µM (inactive) | GI50 [45]: 1.82 µM (inactive) | GI50 [46]: 1.98 µM | GI50 [47]: 3.24 µM (inactive) | GI50 [48]: 1.96 µM (inactive) | GI50 [49]: 1.69 µM (inactive) | GI50 [50]: 1.75 µM (inactive) | GI50 [51]: 1.93 µM (inactive) | GI50 [52]: 1.84 µM (inactive) | GI50 [53]: 1.89 µM (inactive)

Cc1c2cc[n+](C)cc2c(C)c2c1[nH]c1ccc(OC(C)(C)C)cc12
GI50 [57]: > 100 µM (inactive) | GI50 [1]: > 100 µM (inactive) | GI50 [2]: > 100 µM (inactive) | GI50 [4]: > 100 µM (inactive) | GI50 [54]: > 100 µM (inactive) | GI50 [5]: > 100 µM (inactive) | GI50 [6]: > 100 µM (inactive) | GI50 [7]: > 100 µM (inactive) | GI50 [8]: > 100 µM (inactive) | GI50 [9]: > 100 µM (inactive) | GI50 [10]: > 100 µM (inactive) | GI50 [11]: > 100 µM (inactive) | GI50 [12]: > 100 µM (inactive) | GI50 [13]: > 100 µM (inactive) | GI50 [14]: > 100 µM (inactive) | GI50 [55]: > 100 µM (inactive) | GI50 [15]: > 100 µM (inactive) | GI50 [16]: > 100 µM (inactive) | GI50 [17]: > 100 µM (inactive) | GI50 [18]: > 100 µM (inactive) | GI50 [56]: > 100 µM (inactive) | GI50 [19]: > 100 µM (inactive) | GI50 [20]: > 100 µM (inactive) | GI50 [21]: > 100 µM (inactive) | GI50 [22]: > 100 µM (inactive) | GI50 [23]: > 100 µM (inactive) | GI50 [24]: > 100 µM (inactive) | GI50 [25]: > 100 µM (inactive) | GI50 [26]: > 100 µM (inactive) | GI50 [27]: > 100 µM (inactive) | GI50 [28]: > 100 µM (inactive) | GI50 [29]: > 100 µM (inactive) | GI50 [30]: > 100 µM (inactive) | GI50 [32]: > 100 µM (inactive) | GI50 [33]: > 100 µM (inactive) | GI50 [34]: > 100 µM (inactive) | GI50 [36]: > 100 µM (inactive) | GI50 [37]: > 100 µM (inactive) | GI50 [39]: > 100 µM (inactive) | GI50 [40]: > 100 µM (inactive) | GI50 [41]: > 100 µM (inactive) | GI50 [42]: > 100 µM (inactive) | GI50 [43]: > 100 µM (inactive) | GI50 [44]: > 100 µM (inactive) | GI50 [45]: > 100 µM (inactive) | GI50 [46]: > 100 µM | GI50 [47]: > 100 µM (inactive) | GI50 [48]: > 100 µM (inactive) | GI50 [49]: > 100 µM (inactive) | GI50 [50]: > 100 µM (inactive) | GI50 [51]: > 100 µM (inactive) | GI50 [52]: > 100 µM (inactive) | GI50 [53]: > 100 µM (inactive)
